Test results taken from BindingDB's records for doi:10.1016/j.bmcl.2006.05.060 (University of Kentucky, 2006).

What was measured:
[1] = Displacement of radiolabeled DPDPE-Cl from delta opioid receptor in Hartley guinea pig brain
[2] = Displacement of radiolabeled NalBzOH from kappa3 opioid receptor in Hartley guinea pig brain

| SMILES | Ki [1] [nM] | Ki [2] [nM] |
| --- | --- | --- |
| COc1ccc2c3c1O[C@H]1[C@@H](OS(=O)(=O)O)C=C[C@H]4[C@@H](C2)N(C)CC[C@@]341 [C6S] | 414 | 455 |
| C[C@@H](NC(=O)[C@@H](N)Cc1ccc(O)cc1)C(=O)NCC(=O)N(C)[C@@H](Cc1ccccc1)C(=O)NCCO [[tyrosyl-3,5-3H(N)]-D-Ala2-Mephe4-glyol5-enkephalin] | – | 27 |
| CC(=O)Oc1ccc2c3c1O[C@H]1[C@@H](OS(=O)(=O)O)C=C[C@H]4[C@@H](C2)N(C)CC[C@@]341 [M3A6S] | 154 | 5.5 |
| C=CCN1CCC23c4c5ccc(O)c4O[C@@H]2C(=NNC(=O)c2ccccc2)CCC3(O)C1C5 (stereo not given in full) | – | 0.3 |
| CC(C)C(=O)Oc1ccc2c3c1O[C@H]1[C@@H](OS(=O)(=O)O)C=C[C@H]4[C@@H](C2)N(C)CC[C@@]341 [M3IBu6S] | 584 | 266 |
| CN1CC[C@]23c4c5ccc(O)c4O[C@H]2[C@@H](OS(=O)(=O)O)C=C[C@H]3[C@H]1C5 [M6S] | 18 | 6.3 |
| CN1CC[C@]23c4c5ccc(OC(=O)c6ccccc6)c4O[C@H]2[C@@H](OS(=O)(=O)O)C=C[C@H]3[C@H]1C5 [M3B6S] | 600 | 513 |
| CN1CC[C@]23c4c5ccc(O)c4O[C@H]2[C@@H](OS(=O)(=O)O)CC[C@H]3[C@H]1C5 [DM6S] | 19 | 7 |
| CC(=O)Oc1ccc2c3c1O[C@H]1[C@@H](OS(=O)(=O)[O-])C=C[C@H]4[C@@H](C2)[N+](C)(C)CC[C@@]341 [MM3A6S] | 842 | 400 |
| CN1CC[C@]23c4c5ccc(OC(=O)c6ccccc6)c4O[C@H]2[C@@H](OS(=O)(=O)O)CC[C@H]3[C@H]1C5 [DM3B6S] | 1600 | – |
| COc1ccc2c3c1O[C@H]1[C@@H](OS(=O)(=O)O)CC[C@H]4[C@@H](C2)N(C)CC[C@@]341 [DC6S] | 1150 | 760 |
| CN1CC[C@]23c4c5ccc(OS(=O)(=O)O)c4O[C@H]2[C@@H](O)C=C[C@H]3[C@H]1C5 [M3S] | > 10000 | 1690 |
| CC(=O)Oc1ccc2c3c1O[C@H]1[C@@H](OS(=O)(=O)O)CC[C@H]4[C@@H](C2)N(C)CC[C@@]341 [DM3A6S] | 325 | – |
| CSCC[C@H](NC(=O)[C@H](Cc1ccccc1)NC(=O)CNC(=O)CNC(=O)[C@@H](N)Cc1ccc(O)cc1)C(=O)O [2-[(S)-2-(2-{2-[(S)-2-Amino-3-(4-hydroxy-phenyl)-propionylamino]-acetylamino}-acetylamino)-1-oxo-3-phenyl-propylamino]-4-methylsulfanyl-butyric acid] | – | 277 |
| CN1CC[C@]23c4c5ccc(OC(=O)C(C)(C)C)c4O[C@H]2[C@@H](OS(=O)(=O)O)C=C[C@H]3[C@H]1C5 [M3P6S] | 15 | 11 |
| CC1(C)SSC(C)(C)[C@@H](NC(=O)[C@@H](N)Cc2ccc(O)cc2)C(=O)NCC(=O)N[C@@H](Cc2ccc(Cl)cc2)C(=O)N[C@H]1C(=O)O [(4S,7S,13S)-13-[(S)-2-Amino-3-(4-hydroxy-phenyl)-propionylamino]-7-(4-chloro-benzyl)-3,3,14,14-tetramethyl-6,9,12-trioxo-1,2-dithia-5,8,11-triaza-cyclotetradecane-4-carboxylic acid] | – | 1030 |
| C[N+]1(C)CC[C@]23c4c5ccc(OC(=O)c6ccccc6)c4O[C@H]2[C@@H](OS(=O)(=O)[O-])C=C[C@H]3[C@H]1C5 [MM3B6S] | > 10000 | > 10000 |
| CCC(=O)Oc1ccc2c3c1O[C@H]1[C@@H](OS(=O)(=O)O)C=C[C@H]4[C@@H](C2)N(C)CC[C@@]341 [M3Pr6S] | 40 | 20 |
